Assay [1] can be described thus: Displacement of [3H]-Epibatidine from alpha4beta2* nAChR in Sprague-Dawley rat cortical membranes pre-incubated for 5 mins followed by overnight incubation by radioligand liquid scintillation counter analysis.
Assay [2] addresses Neuronal acetylcholine receptor subunit alpha-7 (Rattus norvegicus, UniProt Q05941). Briefly: Displacement of [125I]alpha-Bungarotoxin from alpha7 nAChR in Sprague-Dawley rat hippocampal membranes pre-incubated for 5 mins followed by overnight incubation by radioligand liquid scintillation counter analysis.
The species named for assay [3] is Rattus norvegicus. Briefly: Selectivity ratio of Ki for alpha7 nAChR in Sprague-Dawley rat hippocampal membranes to Ki for alpha4beta2 nAChR in Sprague-Dawley rat cortical membranes.
Assay [4] is described as follows: Displacement of [3H]-Epibatidine from aplha6beta2* nAChR in Sprague-Dawley rat cortical membranes pre-incubated for 5 mins followed by overnight incubation by radioligand liquid scintillation counter analysis.
The target in assay [5] is Neuronal acetylcholine receptor; alpha3/beta4 (Homo sapiens, UniProt P30926+P32297). Briefly: Displacement of [3H]-Epibatidine from human aplha3beta4 nAChR expressed in HEK293 cells pre-incubated for 5 mins followed by overnight incubation by radioligand liquid scintillation counter analysis. In kind it is cell-based.
Assay [6] addresses Neuronal acetylcholine receptor; alpha4/beta2 (Rattus norvegicus, UniProt P09483+P12390). Briefly: Agonist activity at alpha4beta2 nAChR in Sprague-Dawley rat striatal slices assessed as increase in [3H]-Dopamine release after 5 mins by microbeta counting. The assay is classed as protein-complex assay. As to conditions: for pEC50: read-out: EC50.
The species named for assay [7] is Rattus norvegicus. Briefly: Agonist activity at aplha6beta2* nAChR in Sprague-Dawley rat striatal slices assessed as stinulation of [3H]-dopamine release in presence of 100 nM alpha-conotoxin MII after 5 mins by microbeta counting.
Assay [8] concerns the target Neuronal acetylcholine receptor; alpha4/beta2 (Rattus norvegicus) (UniProt P09483+P12390). Briefly: Agonist activity at alpha4beta2 nAChR in Sprague-Dawley rat striatal slices assessed as increase in [3H]-dopamine release after 5 mins by microbeta counting relative to nicotine. The assay is classed as protein-complex assay.
The subject of assay [9] is HEK293. Kind of assay: Selectivity ratio of Ki for aplha6beta2* nAChR in Sprague-Dawley rat cortical membranes to Ki for human aplha3beta4 nAChR expressed in HEK293 cells. In kind it is cell-based.
Assay [10] in a line: Antagonist activity against alpha6beta2* nAChR in Sprague-Dawley rat […] assessed as inhibition of nicotine-induced [3H]-dopamine release after 5 mins by microbeta counting.
Assay [11] is described as follows: Binding affinity to alpha4beta2* nAChR in Sprague-Dawley rat cortical membranes after overnight incubation by radioligand liquid scintillation counter analysis.

Data on 14 compounds can be found in ChEMBL document CHEMBL3627604, “Design of novel 3,6-diazabicyclo[3.1.1]heptane derivatives with potent and selective affinities for α4β2 neuronal nicotinic acetylcholine receptors” (Eur J Med Chem, 2015).

Each structure is given as a SMILES string. pEC50, pIC50, pKi: −log10 of the molar value. The source made the active and inactive calls. No cut-off for these calls is given here.

Neuronal acetylcholine receptor; alpha3/beta4, sequence (P30926 whole entry): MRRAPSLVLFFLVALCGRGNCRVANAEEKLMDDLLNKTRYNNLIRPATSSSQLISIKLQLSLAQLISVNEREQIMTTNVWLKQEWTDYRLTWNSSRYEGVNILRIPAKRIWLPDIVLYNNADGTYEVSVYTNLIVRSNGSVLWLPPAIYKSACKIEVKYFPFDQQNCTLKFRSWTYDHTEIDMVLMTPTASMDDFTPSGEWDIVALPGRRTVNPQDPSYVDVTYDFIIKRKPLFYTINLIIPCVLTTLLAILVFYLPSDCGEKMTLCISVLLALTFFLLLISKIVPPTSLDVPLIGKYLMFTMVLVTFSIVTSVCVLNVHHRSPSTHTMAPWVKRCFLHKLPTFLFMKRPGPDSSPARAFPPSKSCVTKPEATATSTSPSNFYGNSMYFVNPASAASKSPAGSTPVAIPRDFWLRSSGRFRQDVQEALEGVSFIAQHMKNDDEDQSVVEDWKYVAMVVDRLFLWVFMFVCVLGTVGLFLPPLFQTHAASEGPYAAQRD
Neuronal acetylcholine receptor; alpha3/beta4, sequence (P32297 whole entry): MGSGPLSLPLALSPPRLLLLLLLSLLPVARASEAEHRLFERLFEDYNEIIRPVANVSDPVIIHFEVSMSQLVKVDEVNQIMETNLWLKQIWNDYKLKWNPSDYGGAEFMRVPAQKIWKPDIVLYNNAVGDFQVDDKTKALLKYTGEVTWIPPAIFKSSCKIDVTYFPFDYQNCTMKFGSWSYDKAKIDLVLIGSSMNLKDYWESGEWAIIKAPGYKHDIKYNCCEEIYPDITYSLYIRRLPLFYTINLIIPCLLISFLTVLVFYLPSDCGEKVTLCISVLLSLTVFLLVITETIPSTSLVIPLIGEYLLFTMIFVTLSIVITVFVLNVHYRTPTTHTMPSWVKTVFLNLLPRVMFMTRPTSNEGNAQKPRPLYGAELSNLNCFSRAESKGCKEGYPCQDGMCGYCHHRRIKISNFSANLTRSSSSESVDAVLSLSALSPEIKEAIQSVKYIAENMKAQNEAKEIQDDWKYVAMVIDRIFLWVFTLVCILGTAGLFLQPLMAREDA
Neuronal acetylcholine receptor subunit alpha-7, sequence (Q05941 whole entry): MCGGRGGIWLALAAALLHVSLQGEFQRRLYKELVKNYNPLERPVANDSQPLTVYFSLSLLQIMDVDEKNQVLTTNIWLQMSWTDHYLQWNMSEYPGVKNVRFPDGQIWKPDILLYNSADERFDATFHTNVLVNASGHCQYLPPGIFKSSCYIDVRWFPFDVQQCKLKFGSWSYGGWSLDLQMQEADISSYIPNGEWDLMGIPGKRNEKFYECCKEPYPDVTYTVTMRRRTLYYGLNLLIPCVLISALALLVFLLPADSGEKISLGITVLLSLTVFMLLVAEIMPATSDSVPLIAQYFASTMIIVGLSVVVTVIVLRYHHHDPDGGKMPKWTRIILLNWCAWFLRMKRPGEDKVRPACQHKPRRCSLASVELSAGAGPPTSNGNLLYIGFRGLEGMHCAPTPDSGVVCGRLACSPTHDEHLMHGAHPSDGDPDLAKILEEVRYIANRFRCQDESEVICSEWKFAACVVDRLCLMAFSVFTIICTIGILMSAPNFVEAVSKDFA
Neuronal acetylcholine receptor; alpha4/beta2, sequence (P09483 whole entry): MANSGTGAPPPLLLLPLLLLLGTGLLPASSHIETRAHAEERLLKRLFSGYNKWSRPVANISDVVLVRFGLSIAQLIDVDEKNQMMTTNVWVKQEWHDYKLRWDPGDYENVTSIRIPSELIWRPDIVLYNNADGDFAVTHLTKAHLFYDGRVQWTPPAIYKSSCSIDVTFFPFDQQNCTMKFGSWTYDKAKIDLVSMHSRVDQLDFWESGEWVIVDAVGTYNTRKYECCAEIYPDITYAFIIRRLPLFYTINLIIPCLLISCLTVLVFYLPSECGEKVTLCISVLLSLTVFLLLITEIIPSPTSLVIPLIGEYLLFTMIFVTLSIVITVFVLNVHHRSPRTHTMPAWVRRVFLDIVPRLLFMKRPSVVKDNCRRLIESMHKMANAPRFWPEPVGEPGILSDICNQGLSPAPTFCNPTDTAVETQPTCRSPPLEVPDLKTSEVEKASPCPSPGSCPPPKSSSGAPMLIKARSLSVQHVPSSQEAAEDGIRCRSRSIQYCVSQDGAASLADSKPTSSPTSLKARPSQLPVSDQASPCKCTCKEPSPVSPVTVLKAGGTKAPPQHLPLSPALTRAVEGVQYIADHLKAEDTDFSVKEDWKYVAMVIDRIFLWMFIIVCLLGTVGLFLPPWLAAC
Neuronal acetylcholine receptor; alpha4/beta2, sequence (P12390 whole entry): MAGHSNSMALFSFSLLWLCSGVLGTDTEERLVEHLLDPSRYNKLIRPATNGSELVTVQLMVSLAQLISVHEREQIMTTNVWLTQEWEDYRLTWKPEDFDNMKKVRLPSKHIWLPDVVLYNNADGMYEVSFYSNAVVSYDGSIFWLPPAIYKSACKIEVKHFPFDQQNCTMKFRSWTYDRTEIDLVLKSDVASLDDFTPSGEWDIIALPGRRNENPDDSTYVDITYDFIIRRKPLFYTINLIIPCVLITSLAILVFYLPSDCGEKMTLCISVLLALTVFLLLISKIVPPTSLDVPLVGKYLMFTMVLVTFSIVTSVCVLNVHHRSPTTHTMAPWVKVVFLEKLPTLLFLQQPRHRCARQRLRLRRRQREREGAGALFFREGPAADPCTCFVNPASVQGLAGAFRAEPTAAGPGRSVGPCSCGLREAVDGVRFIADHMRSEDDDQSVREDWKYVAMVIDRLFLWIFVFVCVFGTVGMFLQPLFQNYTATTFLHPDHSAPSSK

Turning to `O=[N+]([O-])c1ccc(-c2cncc(N3CC4CC(C3)N4)c2)cc1`, the pKi in assay [1] was 10.98; in assay [2] it was 5.30. For the same compound, the Ratio Ki in [3] worked out at 478000.
`Clc1cncc(N2CC3CC(C2)N3)c1`: the negative-log Ki (pKi) was 11.20 in [1], 7.14 in assay [2], 10.95 in assay [4] and 8.59 in assay [5]. In addition, the Ratio Ki in assay [3] was determined as 11600; in assay [9], 411. For the same compound, the negative-log EC50 (pEC50) in assay [6] is 8.85. The result in [7] was inactive. For the same compound, in assay [8], the Efficacy came out at 111%.
With `Cc1ccc(-c2cncc(N3CC4CC(C3)N4)c2)cc1`, the results for the pKi in assay [1] and in assay [2] were 10.84 and 4.02, respectively. The Ratio Ki in assay [3] is 6.69e+06.
With `Clc1ccc(-c2cncc(N3CC4CC(C3)N4)c2)cc1Cl`, the pKi in assay [1] was 10.04; in [2], 4.44. Also, in assay [3], the Ratio Ki was determined as 397000.
As for `COc1ccc(-c2cncc(N3CC4CC(C3)N4)c2)cc1`, the pKi was 10.92 in assay [1] and 5.19 in [2]. Moreover, the Ratio Ki in assay [3] is 537000.
For `Brc1ccc(-c2cncc(N3CC4CC(C3)N4)c2)cc1`, in that order: 9.82, 4.47 and 226000.
For the compound `Clc1ccc(Cl)c(-c2cncc(N3CC4CC(C3)N4)c2)c1`, the pKi in assay [1] is 10.18; in assay [2], 5.22. The Ratio Ki in [3] came to 90000.
`Clc1ccc(N2CC3CC(C2)N3)cn1`: the pKi in assay [4] is 11.32; in [5] it was 9.70. The pEC50 in assay [6] was 8.94. Also, the result in assay [7] was inactive. Further, the Efficacy in assay [8] is 120%.
For the compound `Fc1ccc(-c2cncc(N3CC4CC(C3)N4)c2)cc1`, the pKi in [1] was 10.61; in assay [2], 3.96; in [4] it was 10.49; in assay [5] it was 8.80. Further, the Ratio Ki in assay [3] is 4.44e+06. The EC50 result in assay [6] is “Not Active”. Besides, the pIC50 in assay [10] was 9.15.
Take `c1ccc(-c2cncc(N3CC4CC(C3)N4)c2)cc1`: the pKi in [1] was 10.95; in assay [2], 4.77; in assay [4], 10.95; in assay [5] it was 8.21. For the same compound, the Ratio Ki in assay [3] worked out at 1.52e+06; in assay [9], 521. The EC50 entry in assay [6] is recorded as “Not Active”. Also, the pIC50 in assay [10] is 8.23.
Regarding `Clc1ccc(-c2cncc(N3CC4CC(C3)N4)c2)cc1`, the results for the pKi in [1] and in assay [2] were 10.48 and 4.32, respectively. Also, in assay [3], the Ratio Ki was 1.46e+06.
On to `Clc1ccc([C@@H]2C[C@H]3CC[C@@H]2N3)cn1` [(+)-EPIBATIDINE], for which, in assay [11], the pKi was 10.37.
Turning to `Brc1cncc(N2CC3CC(C2)N3)c1`, the pKi in assay [1] was 11.24; in assay [2], 6.75. Further, in [3], the Ratio Ki is 30800.
For `Clc1ccc(-c2cncc(N3CC4CC(C3)N4)c2)c(Cl)c1`, the negative-log Ki (pKi) was 10.09 in [1] and 4.89 in [2].
